Laboratory results published in US4952405A, “Method of treating M. avium infection” (Liposome Technology, Inc., priority 1988, dated 1990).
“Also recorded” adds a separate entry of the source.

Tests used:
serotype 4 strain of MAC = details: Yajko; cited from earlier work
[1] = cited from earlier work
MAC 101 (serotype 1) [2] = test: Efficacy against MAC infection in liver and spleen of beige mice; format: in vivo, Mycobacterium avium complex; beige mice; details: for bacteriocidal effect in RES organs (liver, spleen), words: day 22, FIGS. 3A, 3B
Procedure: (§1) Briefly, the animals were infected by I.V. injection of MAC, then treated with control, gentamicin, or gentamicin-liposome formulations 7 days later, with a total of five intravenous injections being given over a 9-day treatment period. The level of viable MAC units (cfu's) in the blood was examined at day 7 (before treatment), day 16 (immediately after the five treatment doses) and day 22. […] For both aminoglycoside drugs, dosages of 0.2 mg and 1.0 mg drug were given.
(§2) Immune deficient "beige" mice (Young, 1986) were infected intravenously with 5×10^6 of MAC 101 (serotype 1) on day 0. After 7 days, blood samples were drawn to quantitate the organisms in the blood prior to treatment. […] On the 16th day, the treated mice were bled and the number of viable MAC units in blood was determined. A week later (day 22), the mice were bled again and sacrificed. The liver and spleen were homogenized and the viable MAC were cultured in 7H10 agar for 10 days for colony counts.

MAC 101 (serotype 1) [3] = test: Efficacy against MAC infection in blood of beige mice; format: in vivo, Mycobacterium avium complex; beige mice; details: for effect on viable MAC units in blood: 0.2 mg and 1.0 mg doses, five I.V. injections, day 7 to 22, FIGS. 2A, 2B; for effect on MAC in the blood: higher dose (1.0 mg)
Procedure: as §1, §2

MAC 101 serotype 1 [4] = test: MIC against MAC 101 serotype 1 in culture; format: cell-based, Mycobacterium avium complex; details: strain 101 serotype 1, bacterial culture
Procedure: Among the aminoglycosides, amikacin has been used for treating MAC infection due to its relatively low minimum inhibitory concentration, particularly in the case of certain MAC serotypes. […] Gentamicin would therefore not be expected to be effective in vivo since the toxic level of gentamicin is about 12 μg/ml in the blood, and therefore it is not possible to maintain patients at the inhibitory dose for sustained therapeutic periods. It would be desirable to treat M. avium infection in humans with gentamicin, however, because of the relatively low cost of the drug.

[5] = Tolerability of higher gentamicin dose in MAC-infected mice; format: in vivo; details: about 4 mg per 20 gm mouse
Excerpt: This was confirmed by attempting to further reduce MAC infection by administering higher gentamicin dose.

MAC 101 serotype 1 [6] = details: cited from earlier work
[7] = Renal clearance / drug excretion, free vs liposomal; format: in vivo; details: after 4 days, mice
Procedure: To examine the difference in drug clearance between free aminoglycoside and an aminoglycoside-liposome composition, free amikacin and amikacin-liposomes were administered to groups of mice, as above, and the amount of drug excreted by the animals over a several-day period was examined.

In the case of gentamicin, the MIC (serotype 4 strain of MAC) is listed as 16 to 32 µg/mL, the “toxic level in the blood” value [1] is listed as “about 12 μg/ml” and the “effect on MAC in the spleen” value (MAC 101 (serotype 1) [2]; both doses) is listed as “moderate killing”. The “bacteriocidal effect in RES organs (liver, spleen), words” value (MAC 101 (serotype 1) [2]; listed as Free gentamicin) was “only modest activity against infection in RES organs”, the “bacteriocidal effect in RES organs (liver, spleen), words” value (MAC 101 (serotype 1) [2]; listed as free gentamicin) was “about the same degree of bacteriocidal action as free amikacin” and the “effect on MAC in the liver” value (MAC 101 (serotype 1) [2]; high dose (1.0 mg/kg as printed)) was “moderate killing activity”. The “effect on MAC in the liver” value (MAC 101 (serotype 1) [2]; low dose (0.2 mg/kg as printed)) was “inhibitory effect on the growth of MAC”, the “effect on viable MAC units in blood” value (MAC 101 (serotype 1) [3]; listed as Free gentamicin) was “no measurable activity against MAC in the bloodstream” and the “effect on viable MAC units in blood” value (MAC 101 (serotype 1) [3]; listed as free gentamicin) was “no appreciable inhibitory effect; also recorded: No appreciable inhibition; also recorded: largely ineffective”. For the same molecule, the “effect on MAC in the blood” value (MAC 101 (serotype 1) [3]) was “not gentamicin”, the “relative activity / MIC in MAC culture, amikacin vs gentamicin” value (MAC 101 serotype 1 [4]) was “substantially less active than free amikacin” and the “tolerability / animal deaths” value [5] was “large percentage of animal deaths”. The “minimum inhibitory concentration (MIC)” value (MAC 101 serotype 1 [6]) was 36 µg/mL.
For `NCC[C@H](O)C(=O)N[C@@H]1C[C@H](N)[C@@H](O[C@H]2O[C@H](CN)[C@@H](O)[C@H](O)[C@H]2O)[C@H](O)[C@H]1O[C@H]1O[C@H](CO)[C@@H](O)[C@H](N)[C@H]1O` [amikacin], the MIC (serotype 4 strain of MAC) is given as 16 to 32 µg/mL, the drug excreted ([7]; 5760 min) is given as “about 80%” and the dose excreted at 96 h ([7]; mouse, in vivo, iv) is given as ~80%. The “effect on viable MAC units in blood” value (MAC 101 (serotype 1) [3]) was “largely ineffective”, the “effect on viable MAC units in blood” value (MAC 101 (serotype 1) [3]; listed as free amikacin) was “Qualitatively similar results” and the “effect on MAC in the blood” value (MAC 101 (serotype 1) [3]) was “significant inhibitory effect on MAC in the blood”. For the same molecule, the “relative activity / MIC in MAC culture, amikacin vs gentamicin” value (MAC 101 serotype 1 [4]) was “nearly an order of magnitude less than that of gentamicin” and the “minimum inhibitory concentration (MIC)” value (MAC 101 serotype 1 [6]) was 2 to 4 µg/mL.
